Test results as given in patent US10064848B2, “Pyridic ketone derivatives, method of preparing same, and pharmaceutical application thereof” (Shanghai Hengrui Pharmaceutical Co., Ltd., priority 2013, dated 2018).

tested on: Colo205 cell; assay: Proliferation inhibition on Colo205 (CCK8); assay type: cell-based; conditions: Homo sapiens, COLO 205, Colo205, 72 hours
Excerpt: Cell line used in the assay: Colo205 (Cell Bank of the Chinese Academy of Sciences, Catalog No. TCHu102).
The following in vitro cell assay is to determine the activity of the compounds of the present invention for inhibiting the proliferation of human colon cancer cell, and the activity is expressed as IC50. General programs of this kind of assay were as follows: First, the cell line to be tested (purchased from Cell Bank of the Chinese Academy of Sciences) was inoculated in a 96-well culture plate with a suitable cell concentration of 4000 cells/mL medium, and was cultured in a carbon dioxide incubator at 37° C., then grown overnight. The medium was replaced by new medium added with a series of concentrations (10000 nM, 1000 nM, 100 nM, 10 nM, 1 nM, 0.1 nM) of the test compound solutions. The plates were placed back in the incubator, and continuously cultured for 72 hours. After 72 hours, CCK8 (Cell Counting Kit-8, Catalog No.: CK04, purchased from colleagues chemical company) method was used to determine the proliferation inhibition activity of the test compounds. IC50 values were calculated from the inhibition data of the test compounds at a series of different concentrations.
The above assay was used to determine the biochemical activity of the compounds of the present invention.

| SMILES | IC50 |
| --- | --- |
| Cc1ncccc1Oc1cc(=O)n(C)c(Nc2ccc(I)cc2F)c1C(N)=O [Example 29, 2-((2-fluoro-4-iodophenyl)amino)-1-methyl-4-((2-methylpyridin-3-yl)oxy)-6-oxo-1,6-dihydropyridine-3-carboxamide] | 0.8 nM |
| Cc1c(F)cccc1Oc1cc(=O)n(C)c(Nc2ccc(I)cc2F)c1C(N)=O [Example 1, 4-(3-fluoro-2-methylphenoxy)-2-((2-fluoro-4-iodophenyl)amino)-1-methyl-6-oxo-1,6-dihydropyridine-3-carboxamide] | 0.7 nM |
| Cc1ccc(Oc2cc(=O)n(C)c(Nc3ccc(I)cc3F)c2C(N)=O)cn1 [Example 31, 2-((2-fluoro-4-iodophenyl)amino)-1-methyl-4-((6-methylpyridin-3-yl)oxy)-6-oxo-1,6-dihydropyridine-3-carboxamide] | 3.6 nM |
| CCS(=O)(=O)Nc1cccc(Oc2cc(=O)n(C)c(Nc3ccc(I)cc3F)c2C(N)=O)c1C [Example 3, 4-(3-(ethylsulfonamido)-2-methylphenoxy)-2-((2-fluoro-4-iodophenyl)amino)-1-methyl-6-oxo-1,6-dihydropyridine-3-carboxamide] | 0.04 nM |
| Cc1cc(F)ccc1Oc1cc(=O)n(C)c(Nc2ccc(I)cc2F)c1C(N)=O [Example 22, 4-(4-fluoro-2-methylphenoxy)-2-((2-fluoro-4-iodophenyl)amino)-1-methyl-6-oxo-1,6-dihydropyridine-3-carboxamide] | 6.1 nM |
